Source: patent EP0349354A1, “Peptides PF10 to PF19 from a retro virus HIV, method for the synthesis of these peptides and their use, particularly in diagnostics” (INSTITUT PASTEUR, priority 1988, dated 1990)

Tested on: anticorps anti-nef
Experiment: ELISA for detection of anti-nef antibodies on coated peptides or nef
Assay type: binding, humain
Settings: for nombre de sérums anti-nef positifs ayant réagi: out of 31 anti-nef positive sera; for intensité de l'immunoréactivité (OD), Serum 1: Serum 1, anti-nef positive; for intensité de l'immunoréactivité (OD), Serum 1 / intensité de l'immunoréactivité (OD), Serum 2 / intensité de l'immunoréactivité (OD), Serum 3 / intensité de l'immunoréactivité (OD), Serum 4 / intensité de l'immunoréactivité (OD), Serum 5 / intensité de l'immunoréactivité (OD), Serum 6 / intensité de l'immunoréactivité (OD), Serum 7 / intensité de l'immunoréactivité (OD), Serum 8 / intensité de l'immunoréactivité (OD), Serum 9 / intensité de l'immunoréactivité (OD), Serum 10 / intensité de l'immunoréactivité (OD), Serum 11 / intensité de l'immunoréactivité (OD), Serum 12 / intensité de l'immunoréactivité (OD), Serum 13 / intensité de l'immunoréactivité (OD), Serum 14 / intensité de l'immunoréactivité (OD), Serum 15 / intensité de l'immunoréactivité (OD), Serum 16 / intensité de l'immunoréactivité (OD), Serum 17 / intensité de l'immunoréactivité (OD), Serum 18 / intensité de l'immunoréactivité (OD), Serum 19 / intensité de l'immunoréactivité (OD), Serum 20 / intensité de l'immunoréactivité (OD), Serum 21 / intensité de l'immunoréactivité (OD), Serum 22 / intensité de l'immunoréactivité (OD), Serum 23 / intensité de l'immunoréactivité (OD), Serum 24 / intensité de l'immunoréactivité (OD), Serum 25 / intensité de l'immunoréactivité (OD), Serum 26 / intensité de l'immunoréactivité (OD), Serum 27 / intensité de l'immunoréactivité (OD), Serum 28 / intensité de l'immunoréactivité (OD), Serum 29 / intensité de l'immunoréactivité (OD), Serum 30 / intensité de l'immunoréactivité (OD), Serum 31 / intensité de l'immunoréactivité (OD), Serum 32 / intensité de l'immunoréactivité (OD), Serum 33: 500 ng coated per well; for intensité de l'immunoréactivité (OD), Serum 2: Serum 2, anti-nef positive; for intensité de l'immunoréactivité (OD), Serum 3: Serum 3, anti-nef positive; for intensité de l'immunoréactivité (OD), Serum 4: Serum 4, anti-nef positive; for intensité de l'immunoréactivité (OD), Serum 5: Serum 5, anti-nef positive; for intensité de l'immunoréactivité (OD), Serum 6: Serum 6, anti-nef positive; for intensité de l'immunoréactivité (OD), Serum 7: Serum 7, anti-nef positive; for intensité de l'immunoréactivité (OD), Serum 8: Serum 8, anti-nef positive; for intensité de l'immunoréactivité (OD), Serum 9: Serum 9, anti-nef positive; for intensité de l'immunoréactivité (OD), Serum 10: Serum 10, anti-nef positive; for intensité de l'immunoréactivité (OD), Serum 11: Serum 11, anti-nef positive; for intensité de l'immunoréactivité (OD), Serum 12: Serum 12, anti-nef positive; for intensité de l'immunoréactivité (OD), Serum 13: Serum 13, anti-nef positive; for intensité de l'immunoréactivité (OD), Serum 14: Serum 14, anti-nef positive; for intensité de l'immunoréactivité (OD), Serum 15: Serum 15, anti-nef positive; for intensité de l'immunoréactivité (OD), Serum 16: Serum 16, anti-nef positive; for intensité de l'immunoréactivité (OD), Serum 17: Serum 17, anti-nef positive; for intensité de l'immunoréactivité (OD), Serum 18: Serum 18, anti-nef positive; for intensité de l'immunoréactivité (OD), Serum 19: Serum 19, anti-nef positive; for intensité de l'immunoréactivité (OD), Serum 20: Serum 20, anti-nef positive; for intensité de l'immunoréactivité (OD), Serum 21: Serum 21, anti-nef positive; for intensité de l'immunoréactivité (OD), Serum 22: Serum 22, anti-nef positive; for intensité de l'immunoréactivité (OD), Serum 23: Serum 23, anti-nef positive; for intensité de l'immunoréactivité (OD), Serum 24: Serum 24, anti-nef positive; for intensité de l'immunoréactivité (OD), Serum 25: Serum 25, anti-nef positive; for intensité de l'immunoréactivité (OD), Serum 26: Serum 26, anti-nef positive; for intensité de l'immunoréactivité (OD), Serum 27: Serum 27, anti-nef positive; for intensité de l'immunoréactivité (OD), Serum 28: Serum 28, anti-nef positive; for intensité de l'immunoréactivité (OD), Serum 29: Serum 29, anti-nef positive; for intensité de l'immunoréactivité (OD), Serum 30: Serum 30, anti-nef positive; for intensité de l'immunoréactivité (OD), Serum 31: Serum 31, anti-nef positive; for intensité de l'immunoréactivité (OD), Serum 32: Serum 32, anti-nef negative control serum; for intensité de l'immunoréactivité (OD), Serum 33: Serum 33, anti-nef negative control serum
Method: Des plaques de microtitration à 96 puits ont été recouvertes une nuit avec 500 ng de protéine nef bactérienne, à 37°C ou avec 500 ng de peptides synthétiques par puits dans 50µl de PBS à pH 7,4. Après saturation avec 400 µl de PBS pH 7,4, contenant 5% de caséine, durant 1 heure à 37°C et lavage avec PBS à pH 7,4, 0,5% de BSA, 0,01% tween, 50 µl de sérums à différentes dilutions ont été ajoutés pendant 2 heures à 37°C. Après le rinçage, 50µl de complexes d'IgG de souris anti-humaine-(H + L)-peroxydase 1:1000 ont été incubés pendant 1 heure à 37°C. Après un nouveau rinçage, 100µl de OPD ont été ajoutés pendant 30mn à température ambiante dans l'obscurité. La réaction de l'enzyme a été arrêtée par addition de 50µl d'acide sulfurique 4N et la densité optique des plaques a été lue à 492 nm/620 nm. Les plaques recouvertes avec la caséine ont été utilisées comme contrôle négatif.
En vue d'étudier la possibilité d'utiliser des peptides synthétiques en tant qu'antigènes pour la détection d'anticorps anti-nef chez des patients infectés par HIV, 8 peptides synthétiques couvrant la totalité de la séquence de la protéine nef de HIV-1 (figure 4) ont été utilisés dans un test ELISA avec 31 sérums anti-nef positifs et 2 sérums anti-nef négatifs utilisés comme contrôle. Les recombinants nef ont été utilisés comme contrôle positif dans les tests ELISA et la caséine a été utilisée comme contrôle négatif. Les résultats de ces expériences sont donnés dans le tableau 4 qui illustre l'essai suivant: Essai ELISA sur 31 sérums anti-nef-positifs et 2 sérums anti-nef- négatifs, soit pré-recouverts avec des peptides synthétiques (PF 11 à PF 18), soit en utilisant nef, la caséine ou un mélange de peptides PF 12 et PF 17. Les sérums ont été sélectionnés au hasard parmi des sérums anti-nef positifs et anti-nefs négatifs testés par la méthode RIA en utilisant ¹²⁵I nef. L'intensité de l'immunoradioactivité est notée "-" pour une densité optique (OD) inférieure à 0,2; "+" pour OD = 0,2 à 0,4; "++" pour OD = 0,4 à 0,8 et "+++" pour OD = 0,8 à 2,0.

| Sequence | nombre de sérums anti-nef positifs ayant réagi (ELISA) | intensité de l'immunoréactivité (OD), Serum 1 | intensité de l'immunoréactivité (OD), Serum 2 | intensité de l'immunoréactivité (OD), Serum 3 | intensité de l'immunoréactivité (OD), Serum 4 | intensité de l'immunoréactivité (OD), Serum 5 | intensité de l'immunoréactivité (OD), Serum 6 | intensité de l'immunoréactivité (OD), Serum 7 | intensité de l'immunoréactivité (OD), Serum 8 | intensité de l'immunoréactivité (OD), Serum 9 | intensité de l'immunoréactivité (OD), Serum 10 | intensité de l'immunoréactivité (OD), Serum 11 | intensité de l'immunoréactivité (OD), Serum 12 | intensité de l'immunoréactivité (OD), Serum 13 | intensité de l'immunoréactivité (OD), Serum 14 | intensité de l'immunoréactivité (OD), Serum 15 | intensité de l'immunoréactivité (OD), Serum 16 | intensité de l'immunoréactivité (OD), Serum 17 | intensité de l'immunoréactivité (OD), Serum 18 | intensité de l'immunoréactivité (OD), Serum 19 | also measured |
| --- | --- | --- | --- | --- | --- | --- | --- | --- | --- | --- | --- | --- | --- | --- | --- | --- | --- | --- | --- | --- | --- |
| XCGYFPDWQNYTPGPGVRYPLTFGWCYKLVPVEPDKVEEANKGENTSLL HPVZ [PF15, protéine F HIV-1, séquence 118-167] | 4 | - (pour une densité optique (OD) inférieure à 0,2) | - (pour une densité optique (OD) inférieure à 0,2) | - (pour une densité optique (OD) inférieure à 0,2) | - (pour une densité optique (OD) inférieure à 0,2) | + (pour OD = 0,2 à 0,4) | + (pour OD = 0,2 à 0,4) | - (pour une densité optique (OD) inférieure à 0,2) | - (pour une densité optique (OD) inférieure à 0,2) | - (pour une densité optique (OD) inférieure à 0,2) | - (pour une densité optique (OD) inférieure à 0,2) | - (pour une densité optique (OD) inférieure à 0,2) | - (pour une densité optique (OD) inférieure à 0,2) | - (pour une densité optique (OD) inférieure à 0,2) | - (pour une densité optique (OD) inférieure à 0,2) | - (pour une densité optique (OD) inférieure à 0,2) | - (pour une densité optique (OD) inférieure à 0,2) | - (pour une densité optique (OD) inférieure à 0,2) | - (pour une densité optique (OD) inférieure à 0,2) | ++ (pour OD = 0,4 à 0,8) | intensité de l'immunoréactivité (OD), Serum 20: - (pour une densité optique (OD) inférieure à 0,2); intensité de l'immunoréactivité (OD), Serum 21: - (pour une densité optique (OD) inférieure à 0,2); intensité de l'immunoréactivité (OD), Serum 22: ++ (pour OD = 0,4 à 0,8); intensité de l'immunoréactivité (OD), Serum 23: - (pour une densité optique (OD) inférieure à 0,2); intensité de l'immunoréactivité (OD), Serum 24: - (pour une densité optique (OD) inférieure à 0,2); intensité de l'immunoréactivité (OD), Serum 25: - (pour une densité optique (OD) inférieure à 0,2); intensité de l'immunoréactivité (OD), Serum 26: - (pour une densité optique (OD) inférieure à 0,2); intensité de l'immunoréactivité (OD), Serum 27: - (pour une densité optique (OD) inférieure à 0,2); intensité de l'immunoréactivité (OD), Serum 28: - (pour une densité optique (OD) inférieure à 0,2); intensité de l'immunoréactivité (OD), Serum 29: - (pour une densité optique (OD) inférieure à 0,2); intensité de l'immunoréactivité (OD), Serum 30: - (pour une densité optique (OD) inférieure à 0,2); intensité de l'immunoréactivité (OD), Serum 31: - (pour une densité optique (OD) inférieure à 0,2); intensité de l'immunoréactivité (OD), Serum 32: - (pour une densité optique (OD) inférieure à 0,2); intensité de l'immunoréactivité (OD), Serum 33: - (pour une densité optique (OD) inférieure à 0,2) |
| XCKGGLEGLIHSQRRQDILDLWIYHTQGYFPDZ [PF18] | 10 | - (pour une densité optique (OD) inférieure à 0,2) | - (pour une densité optique (OD) inférieure à 0,2) | - (pour une densité optique (OD) inférieure à 0,2) | - (pour une densité optique (OD) inférieure à 0,2) | + (pour OD = 0,2 à 0,4) | + (pour OD = 0,2 à 0,4) | - (pour une densité optique (OD) inférieure à 0,2) | - (pour une densité optique (OD) inférieure à 0,2) | - (pour une densité optique (OD) inférieure à 0,2) | - (pour une densité optique (OD) inférieure à 0,2) | - (pour une densité optique (OD) inférieure à 0,2) | - (pour une densité optique (OD) inférieure à 0,2) | - (pour une densité optique (OD) inférieure à 0,2) | - (pour une densité optique (OD) inférieure à 0,2) | - (pour une densité optique (OD) inférieure à 0,2) | - (pour une densité optique (OD) inférieure à 0,2) | - (pour une densité optique (OD) inférieure à 0,2) | ++ (pour OD = 0,4 à 0,8) | + (pour OD = 0,2 à 0,4) | part des sérums anti-nef positifs avec immunoréactivité significative (ELISA, 31 anti-nef positive sera): 1/3; intensité de l'immunoréactivité (OD), Serum 20: + (pour OD = 0,2 à 0,4); intensité de l'immunoréactivité (OD), Serum 21: +++ (pour OD = 0,8 à 2,0); intensité de l'immunoréactivité (OD), Serum 22: +++ (pour OD = 0,8 à 2,0); intensité de l'immunoréactivité (OD), Serum 23: - (pour une densité optique (OD) inférieure à 0,2); intensité de l'immunoréactivité (OD), Serum 24: ++ (pour OD = 0,4 à 0,8); intensité de l'immunoréactivité (OD), Serum 25: + (pour OD = 0,2 à 0,4); intensité de l'immunoréactivité (OD), Serum 26: - (pour une densité optique (OD) inférieure à 0,2); intensité de l'immunoréactivité (OD), Serum 27: - (pour une densité optique (OD) inférieure à 0,2); intensité de l'immunoréactivité (OD), Serum 28: - (pour une densité optique (OD) inférieure à 0,2); intensité de l'immunoréactivité (OD), Serum 29: - (pour une densité optique (OD) inférieure à 0,2); intensité de l'immunoréactivité (OD), Serum 30: +++ (pour OD = 0,8 à 2,0); intensité de l'immunoréactivité (OD), Serum 31: - (pour une densité optique (OD) inférieure à 0,2); intensité de l'immunoréactivité (OD), Serum 32: - (pour une densité optique (OD) inférieure à 0,2); intensité de l'immunoréactivité (OD), Serum 33: - (pour une densité optique (OD) inférieure à 0,2) |
